Read-outs that look alike come from different tables or passages of the source.
Experiments:
[1] = tested on: MDA-MB-468 human breast cancer cells; assay: MTT cell proliferation assay, MDA-MB-468; assay type: cell-based; conditions: MDA-MB-468 cells, SEM < 10%, read-out: GI50s MDA-MB-468
Text: (§1) MCF-7, MDA-MB-231, MDA-MB-468 and SKBR-3 human breast cancer cells and LNCaP, PC-3, and CWR22Rv1 human prostate carcinoma cells (American Type Culture Collection, Manassas, Va., USA) were maintained in RPMI 1640 media (Gibco-Life Technologies, Grand Island, N.Y., USA) supplemented with 10% fetal bovine serum and 1% penicillin/streptomycin. Western blotting was done as mentioned previously,^8, 13b using the following antibodies: AR, Bad, Bax, Bcl-2, eIF4E, Mnk1, Mnk-2, N-cadherin, PARP, peIF4E^ser209 purchased from Cell Signaling Technology, Danvers, Mass., USA. Anti-Mnk2 was purchased from Sigma-Aldrich and normal rabbit IgG, cyclin D1 was from Santa Cruz Biotechnology, CA, USA.
(§2) Cells were plated (2500 cells/well) in 96 well plates and treated with or without specified compounds as described previously.^8a, 12b
(§3) The clinically relevant retinoids, ATRA and 4-HPR and the Mnk inhibitor, cercosporamide were used as comparators in the assays.

[2] = tested on: MDA-MB-231 human breast cancer cells; assay: MTT cell proliferation assay, MDA-MB-231; assay type: cell-based; conditions: MDA-MB-231 cells, SEM < 10%, read-out: GI50s MDA-MB-231
Text: as §1, §2, §3

[3] = tested on: MCF-7 human breast cancer cells; assay: MTT cell proliferation assay, MCF-7; assay type: cell-based; conditions: MCF-7 cells; for IC50: Homo sapiens, MCF7, MTT, SEM < 10%, read-out: GI50s MCF-7
Text: as §1, §2, §3

[4] = tested on: SKBR-3 human breast cancer cells; assay: MTT cell proliferation assay, SKBR-3; assay type: cell-based; conditions: SK-BR-3, SKBR-3 cells, SEM < 10%, read-out: GI50s SKBR-3
Text: as §1, §2, §3

[5] = tested on: PC-3 human prostate carcinoma cells; conditions: PC-3 cells; previously reported in Ramamurthy V et al.; read-out: GI50s PC-3; cited from earlier work
[6] = tested on: CWR22Rv1 human prostate carcinoma cells; conditions: previously reported in Ramamurthy V et al., read-out: GI50s CWR22Rv1; cited from earlier work
[7] = tested on: LNCaP human prostate carcinoma cells; conditions: previously reported in Ramamurthy V et al., read-out: GI50s LNCaP; cited from earlier work
[8] = tested on: CWR22Rv1 human prostate carcinoma cells; assay: MTT cell proliferation assay, CWR22Rv1; assay type: cell-based; conditions: SEM < 10%, read-out: GI50s CWR22Rv1
Text: as §1, §2, §3
(§4) The PC-3 cell line was the least sensitive to all the compounds tested.

[9] = tested on: PC-3 human prostate carcinoma cells; assay: MTT cell proliferation assay, PC-3; assay type: cell-based; conditions: PC-3 cells, SEM < 10%, read-out: GI50s PC-3
Text: as §1, §2, §3, §4

[10] = tested on: LNCaP human prostate carcinoma cells; assay: MTT cell proliferation assay, LNCaP; assay type: cell-based; conditions: SEM < 10%, read-out: GI50s LNCaP
Text: as §1, §2, §3, §4

[11] = tested on: MCF-7, MDA-MB-231, MDA-MB-468 and SKBR-3 human breast cancer cells; assay: MTT cell proliferation assay, four breast cancer cell lines together; assay type: cell-based; conditions: range across the four BC cell lines, read-out: GI50s, range over the BC cell lines
Text: as §1, §2, §3

## CC1=C(/C=C/C(C)=C/C=C/C(C)=C\C(=O)NCc2ccc(F)cc2)C(C)(C)CCC1n1ccnc1 (stereo not drawn) [Compound 23, (2Z,4E,6E,8E)-9-(3-(1H-imidazol-1-yl)-2,6,6-trimethylcyclohex-1-en-1-yl)-N-(4-fluorobenzyl)-3,7-dimethylnona-2,4,6,8-tetraenamide]
other
  melting point: 93 to 95 °C
[1]
  IC50: 2.45 µM
[2]
  IC50: 1.41 µM
[3]
  IC50: 1.93 µM
[4]
  IC50: 5.5 µM

## CC1=C(/C=C/C(C)=C/C=C/C(C)=C\C(=O)NCc2ccc(O)cc2)C(C)(C)CC=C1c1cncnc1 [Compound 39, (2Z,4E,6E,8E)-N-(4-hydroxybenzyl)-3,7-dimethyl-9-(2,6,6-trimethyl-3-(pyrimidin-5-yl)cyclohexa-1,3-dien-1-yl)nona-2,4,6,8-tetraenamide]
other
  melting point: 145 to 147 °C
[1]
  IC50: 19.1 µM
[2]
  IC50: 11.5 µM
[3]
  IC50: 4.96 µM
[4]
  IC50: 11.5 µM

## CC(O)(CS(=O)(=O)c1ccc(F)cc1)C(=O)Nc1ccc(C#N)c(C(F)(F)F)c1 (stereo not drawn) [Casodex]
[5]
  IC50: 9.15 µM
[6]
  IC50: 3.81 µM
[7]
  IC50: 2.61 µM

## CC1=C(/C=C/C(C)=C/C=C/C(C)=C\C(=O)Nc2ccccc2)C(C)(C)CC=C1c1cccnc1 [Compound 35, (2Z,4E,6E,8E)-3,7-dimethyl-N-phenyl-9-(2,6,6-trimethyl-3-(pyridin-3-yl)cyclohexa-1,3-dien-1-yl)nona-2,4,6,8-tetraenamide]
[1]
  IC50: 39.8 µM
[2]
  IC50: 25.1 µM
[3]
  IC50: 8.32 µM
[4]
  IC50: 47.4 µM

## CC1=C(/C=C/C(C)=C/C=C/C(C)=C\C(=O)NCCc2ccc(O)cc2)C(C)(C)CC=C1c1cncnc1 [Compound 40, (2Z,4E,6E,8E)-N-(4-hydroxyphenethyl)-3,7-dimethyl-9-(2,6,6-trimethyl-3-(pyrimidin-5-yl)cyclohexa-1,3-dien-1-yl)nona-2,4,6,8-tetraenamide]
other
  melting point: 115 to 117 °C
[1]
  IC50: 23.4 µM
[2]
  IC50: 14.5 µM
[3]
  IC50: 2.96 µM
[4]
  IC50: 24 µM

## CC1=C(/C=C/C(C)=C/C=C/C(C)=C\C(=O)Nc2ccc(O)cc2)C(C)(C)CCC1n1ccnc1 (stereo not drawn) [Compound 17, (2Z,4E,6E,8E)-9-(3-(1H-imidazol-1-yl)-2,6,6-trimethylcyclohex-1-en-1-yl)-N-(4-hydroxyphenyl)-3,7-dimethylnona-2,4,6,8-tetraenamide]
[1]
  IC50: 6.83 µM
[8]
  IC50: 3.89 µM
[9]
  IC50: 11.7 µM
[2]
  IC50: 13.1 µM
[10]
  IC50: 3.54 µM
[3]
  IC50: 1.99 µM
[4]
  IC50: 3.89 µM

## CC1=C(/C=C/C(C)=C/C=C/C(C)=C\C(=O)NCc2ccccc2)C(C)(C)CCC1n1ccnc1 (stereo not drawn) [Compound 21, (2Z,4E,6E,8E)-9-(3-(1H-imidazol-1-yl)-2,6,6-trimethylcyclohex-1-en-1-yl)-N-benzyl-3,7-dimethylnona-2,4,6,8-tetraenamide]
[1]
  IC50: 7.24 µM
[2]
  IC50: 5.88 µM
[3]
  IC50: 9.77 µM
[4]
  IC50: 10.7 µM
[11]
  IC50: 5.88 to 10.7 µM

## CC1=C(/C=C/C(C)=C/C=C/C(C)=C\C(=O)NCc2cccc(F)c2)C(C)(C)CCC1n1ccnc1 (stereo not drawn) [Compound 24, (2Z,4E,6E,8E)-9-(3-(1H-imidazol-1-yl)-2,6,6-trimethylcyclohex-1-en-1-yl)-N-(3-fluorobenzyl)-3,7-dimethylnona-2,4,6,8-tetraenamide]
[1]
  IC50: 2.45 µM
[2]
  IC50: 1.65 µM
[3]
  IC50: 1.81 µM
[4]
  IC50: 5.5 µM

## CC1=C(/C=C/C(C)=C/C=C/C(C)=C\C(=O)NCCc2ccc(O)cc2)C(C)(C)CCC1n1ccnc1 (stereo not drawn) [Compound 25, (2Z,4E,6E,8E)-9-(3-(1H-imidazol-1-yl)-2,6,6-trimethylcyclohex-1-en-1-yl)-N-(4-hydroxyphenethyl)-3,7-dimethylnona-2,4,6,8-tetraenamide]
other
  melting point: 126 to 128 °C
[1]
  IC50: 13.5 µM
[2]
  IC50: 2.88 µM
[3]
  IC50: 1.9 µM
[4]
  IC50: 1.41 µM

## CC1=C(/C=C/C(C)=C/C=C/C(C)=C\C(=O)NCCc2ccc(O)cc2)C(C)(C)CC=C1c1cccnc1 [Compound 37, (2Z,4E,6E,8E)-N-(4-hydroxyphenethyl)-3,7-dimethyl-9-(2,6,6-trimethyl-3-(pyridin-3-yl)cyclohexa-1,3-dien-1-yl)nona-2,4,6,8-tetraenamide]
other
  melting point: 110 to 112 °C
[1]
  IC50: 50.1 µM
[2]
  IC50: 26.9 µM
[3]
  IC50: 8.75 µM
[4]
  IC50: 42.2 µM

## CC1=C(/C=C/C(C)=C/C=C/C(C)=C\C(=O)NCc2ccc(O)cc2)C(C)(C)CC=C1c1cccnc1 [Compound 36, (2Z,4E,6E,8E)-N-(4-hydroxybenzyl)-3,7-dimethyl-9-(2,6,6-trimethyl-3-(pyridin-3-yl)cyclohexa-1,3-dien-1-yl)nona-2,4,6,8-tetraenamide]
other
  melting point: 124 to 126 °C

## CC1=C(/C=C/C(C)=C/C=C/C(C)=C\C(=O)Nc2ccccc2O)C(C)(C)CCC1n1ccnc1 (stereo not drawn) [Compound 18, (2Z,4E,6E,8E)-9-(3-(1H-imidazol-1-yl)-2,6,6-trimethylcyclohex-1-en-1-yl)-N-(2-hydroxyphenyl)-3,7-dimethylnona-2,4,6,8-tetraenamide]
[1]
  IC50: 3.03 µM
[8]
  IC50: 2.23 µM
[9]
  IC50: 15.5 µM
[2]
  IC50: 4.67 µM
[10]
  IC50: 3.23 µM
[3]
  IC50: 1.09 µM
[4]
  IC50: 3.89 µM

## CC1=C(/C=C/C(C)=C/C=C/C(C)=C\C(=O)Nc2ccc(F)cc2)C(C)(C)CCC1n1ccnc1 (stereo not drawn) [Compound 19, (2Z,4E,6E,8E)-9-(3-(1H-imidazol-1-yl)-2,6,6-trimethylcyclohex-1-en-1-yl)-N-(4-fluorophenyl)-3,7-dimethylnona-2,4,6,8-tetraenamide]
[1]
  IC50: 4.57 µM
[9]
  IC50: 30.2 µM
[2]
  IC50: 4.95 µM
[10]
  IC50: 3.89 µM
[3]
  IC50: 0.4 µM
[3]; versus Compound 16
  fold more potent than Compound 16 (GI50, MCF-7): ~4.8 fold
[4]
  IC50: 25.1 µM

## CC1=C(/C=C/C(C)=C/C=C/C(C)=C/C(=O)Nc2ccc(O)cc2)C(C)(C)CCC1 [Compound 4-HPR, N-(4-hydroxyphenyl) retinamide, reference compound]
[5]
  IC50: 3.54 µM
[1]
  IC50: 6.02 µM
[2]
  IC50: 11.1 µM
[6]
  IC50: 3.23 µM
[3]
  IC50: 4.65 µM
[7]
  IC50: 2.69 µM
[4]
  IC50: 3.98 µM

## CC1=C(/C=C/C(C)=C/C=C/C(C)=C\C(=O)Nc2ccccc2)C(C)(C)CC=C1c1cncnc1 [Compound 38, (2Z,4E,6E,8E)-3,7-dimethyl-N-phenyl-9-(2,6,6-trimethyl-3-(pyrimidin-5-yl)cyclohexa-1,3-dien-1-yl)nona-2,4,6,8-tetraenamide]
other
  melting point: 105 to 107 °C
[1]
  IC50: 22.9 µM
[2]
  IC50: 26.9 µM
[3]
  IC50: 7.01 µM
[4]
  IC50: 31 µM
